Our source for the IC50 values is US7495114B2, “Cytotoxic agents containing novel potent taxanes and their therapeutic use” (Immunogen Inc., priority 2002, dated 2009).

For orientation: IC50 means the concentration that inhibits the measured activity by half.

Common to all, as to format: cell-based, human
In one assay the test system is A431 cells. Briefly: In vitro cytotoxicity of taxanes, plating efficiency (clonogenic) assay, A431. The settings on record: read-out: IC50 value towards A431 cells. An excerpt:
(§1) The sulfide, disulfide, and sulfhydryl containing taxane drugs of the invention can be evaluated for their ability to suppress proliferation of various human tumor cell lines in vitro. Four adherent cell lines, A431 (human epidermoid carcinoma), SKBR3 (human breast tumor), A549 (human lung carcinoma) and MCF-7 (human breast tumor), and the non-adherent cell line, Namalwa (Burkitt's lymphoma) are used for the assessment of cytotoxicity of these compounds. Cells are exposed to the compounds for 72 hours and the surviving fractions of cells are measured in direct assays.
A431, A549 and MCF-7 cells were plated at different densities in 6-well tissue-culture plates in DMEM medium supplemented with 10% fetal calf serum. Taxane 2′, at varying concentrations, was added and the cells were maintained in a humidified atmosphere at 37° C. and 6% CO2 until colonies of approximately 20 cells or more were formed (6 to 10 days). Control plates contained no taxane. The cells were then fixed with formaldehyde, stained with crystal violet, and counted under a low-magnification microscope. Plating efficiencies were then determined from the colony numbers and surviving fractions of cells were calculated as the ratio of the plating efficiency of the treated sample and the plating efficiency of the control.

For a further assay, the system named is MCF-7 cells. Briefly: In vitro cytotoxicity of taxanes, plating efficiency (clonogenic) assay, MCF-7. The settings on record: read-out: IC50 value towards MCF-7 cells.
Description: (§2) The new taxanes and the disulfide containing taxane drugs of the invention can be evaluated for their ability to suppress proliferation of human tumor cell lines in vitro.
as §1
(§3) The cytotoxic potency of taxane 3′ was similarly confirmed. […] The cells were then fixed with formaldehyde, stained with crystal violet, and counted under a low-magnification microscope. Plating efficiencies were then determined from the colony numbers and surviving fractions of cells were calculated as the ratio of the plating efficiency of the treated sample and the plating efficiency of the control.
(§4) The new taxoids and the disulfide containing taxane drugs of the invention were evaluated for their ability to suppress proliferation of human tumor cell lines in vitro. […]
(§5) 18 and 37 was measured as follows. […]

Another assay has as its system A549 cells. Description: In vitro cytotoxicity of taxanes, plating efficiency (clonogenic) assay, A549. The settings on record: read-out: IC50 value towards A549 cells.
Description: as §2, §1, §3, §4, §5

For the compound “3′-dephenyl-3′-(isobutenyl)-7-(methyldisulfonyl-propanoyl)-docetaxel [Taxane 2′]”, the half-maximal inhibitory concentration (IC50) in the assay on A431 cells stood at 0.8 nM.
On to `COc1ccc(OC)c(C(=O)OC2C3C4(OC(C)=O)COC4CC(OC(=O)CCSSC)C3(C)C(=O)C(O)C3=C(C)C(OC(=O)C(O)C(C=C(C)C)NC(=O)OC(C)(C)C)CC2(O)C3(C)C)c1` (stereo not drawn) [Taxane 3′, 3′-dephenyl-3′-(isobutenyl)-2-debenzoyl-2-(2,5-dimethoxybenzoyl)-7-(methyldisulfonyl-propanoyl)-docetaxel], for which the IC50 was determined as 0.063 nM in the assay on MCF-7 cells and 0.18 nM in the assay with A549 cells.
